IC50 data for 13 compounds are collected here from US9434760B2, “Prolinamide derivatives as thrombin inhibitors, preparation method and application thereof” (SHANGHAI INSTITUTE OF PHARMACEUTICAL INDUSTRY, priority 2010, dated 2016).

pIC50: −log10 of the molar value. Where a name gives a salt, the structure may show the parent alone.

In one assay the target is T1, lyophilized bovine thrombin standard substance purified from bovine blood (Bos taurus, UniProt P00735).
T1 construct: lyophilized bovine thrombin standard substance purified from bovine blood; from tissue; host or cells: bovine blood
In words: Test for antithrombin activity (chromogenic substrate S2238). It is filed as biochemical.
Conditions: not given
An excerpt:
Wherein ΔAs represents the rate of change in inhibited absorbance value, and ΔAc represents the rate of change in uninhibited absorbance values.
Wherein h represents Hill coefficient.
As for `CC(C)CC(NS(=O)(=O)c1ccccc1)C(=O)N1CCC[C@H]1C(=O)NCc1ccc(C(=N)N)cc1` (stereo partly drawn) [Example 2, N-benzenesulfonyl-D,L-leucyl-L-prolyl-[(4-amidinophenyl)methyl]amide acetate], the pIC50 was 6.94.
Same read-out and setting: as for `CC(C)C[C@@H](NS(=O)(=O)Cc1ccccc1)C(=O)N1CCC[C@H]1C(=O)NCc1ccc(C(=N)N)cc1` [Example 21, N-benzylsulfony-D-leucyl-L-prolyl-[(4-amidinophenyl)methyl]amide hydrochloride], the figure is 6.77; as for `N=C(N)c1ccc(CNC(=O)[C@@H]2CCN2C(=O)[C@H](NCC(=O)O)C2CCCCC2)cc1` [melagatran, reference compound], 7.16.

The assay is the same for the next values; noted with them: 0.15 U/ml bovine thrombin, incubation for 15 minutes, substrate S2238 (0.075 μM), absorbance at 405 nm during 4 minutes, room temperature; read-out: IC50.
For the compound `CC(C)CC(NC(=O)c1ccccc1)C(=O)N1CCC[C@H]1C(=O)NCc1ccc(C(=N)N)cc1` (mixture of isomers) [Example 6, N-benzoyl-D,L-leucyl-L-prolyl-[(4-amidinophenyl)methyl]amide acetate], the pIC50 was 6.81.
As to `CC[C@H](C)[C@H](NC(=O)c1ccccc1)C(=O)N1CCC[C@H]1C(=O)NCc1ccc(C(=N)N)cc1` (mixture of isomers) [Example 12, N-benzoyl-D,L-isoleucyl-L-prolyl-[(4-amidinophenyl)methyl]amide acetate], the pIC50 was 6.25.
On the same count and under the same terms, the value for `CC(C)C[C@@H](NS(=O)(=O)c1ccccc1)C(=O)N1CCC[C@H]1C(=O)NCc1ccc(C(=N)NC(=O)OCc2ccccc2)cc1` [Example 18] was 7.52; that for `CC(C)C[C@@H](NS(=O)(=O)c1ccccc1)C(=O)N1CCC[C@H]1C(=O)NCc1ccc(C(=N)N)cc1` [Example 19, N-benzenesulfony-D-leucyl-L-prolyl-[(4-amidinophenyl)methyl]amide hydrochloride] was 7.92; that for `CC(C)C[C@@H](NS(=O)(=O)Cc1ccccc1)C(=O)N1CCC[C@H]1C(=O)NCc1ccc(C(=N)NC(=O)OCc2ccccc2)cc1` [Example 20] was 6.61.
On the same count and under the same terms, the value for `CC(C)C[C@@H](NC(=O)c1ccccc1)C(=O)N1CCC[C@H]1C(=O)NCc1ccc(C(=N)N)cc1` [Example 22, N-benzoyl-D-leucyl-L-prolyl-[(4-amidinophenyl)methyl]amide hydrochloride] was 7.26.
On the same count and under the same terms, the value for `CC(C)C[C@@H](NC(=O)Cc1ccccc1)C(=O)N1CCC[C@H]1C(=O)NCc1ccc(C(=N)N)cc1` [Example 23, N-phenylacetyl-D-leucyl-L-prolyl-[(4-amidinophenyl)methyl]amide hydrochloride] was 6.33; that for `CC(C)C[C@@H](NCC(=O)O)C(=O)N1CCC[C@H]1C(=O)NCc1ccc(C(=N)N)cc1` [Example 24, N-carboxylmethyl-D-leucyl-L-prolyl-[(4-amidinophenyl)methyl]amide hydrochloride] was 6.25; that for “N-benzenesulfonyl-D-leucyl-L-prolyl-[1-(aminoiminomethyl)-pyrrol-3-yl]methyl amide hydrochloride [Example 27]” was 8.10.
Regarding “N-benzylsulfonyl-D,L-leucyl-L-prolyl-{[4-(N′-hydroxyl) amidinophenyl]methyl}amide acetate [Example 4]”, the pIC50 was 7.33.
